Laboratory results published in ChEMBL document CHEMBL1129860, “Studies on penam sulfones III. Synthesis and -lactamase inhibitory activity of sodium (6R)-6-(-hydroxybenzyl)-2-methoxyiminomethyl-2-methylpenam-3-carboxylate 1,1-dioxide and sodium 2-acyl-2-methylpenam-3-carboxylate 1,1-dioxide” (1997).
Converted amounts (≈) assume the structure as drawn. One block for each molecule: values may come before it.

Legend:
Pseudomonas aeruginosa [1] = assay: microbe, parasite or virus in culture
Klebsiella aerogenes [2] = assay: In vitro minimal inhibitory concentration (MIC) of compound in combination with Ceftazidime (CAZ) showed synergic activity against Enterobacter aerogenes S-97; format: functional
Morganella morganii [3] = assay: In vitro minimal inhibitory concentration (MIC) of compound in combination with Ceftazidime (CAZ) showed synergic activity against Morganella morganii 36014; format: functional; conditions: Morganella morganii; read-out: MIC
Enterobacter cloacae [4] = assay: In vitro minimal inhibitory concentration (MIC) of compound in combination with Ceftazidime (CAZ) showed synergic activity against Enterobacter cloacae S-11; format: functional
Enterobacter cloacae [5] = assay: In vitro minimal inhibitory concentration (MIC) of compound in combination with Ceftazidime (CAZ) showed synergic activity against Enterobacter cloacae S-65; format: functional
Morganella morganii [6] = assay: In vitro minimal inhibitory concentration (MIC) of compound in combination with Ceftazidime (CAZ) showed synergic activity against Morganella morganii 36030; format: functional
Pseudomonas aeruginosa [7] = assay: microbe, parasite or virus in culture; remark: listed apart in the source
Escherichia coli [8] = assay: In vitro minimal inhibitory concentration (MIC) of compound in combination with piperacillin (PIPC) showed synergic activity against Escherichia coli OXA 3; format: functional
Enterobacter cloacae [9] = assay: In vitro minimal inhibitory concentration (MIC) of compound in combination with piperacillin (PIPC) showed synergic activity against Enterobacter cloacae P99; format: functional
Escherichia coli [10] = assay: In vitro minimal inhibitory concentration (MIC) of compound in combination with piperacillin (PIPC) showed synergic activity against Escherichia coli OXA 1; format: functional
Escherichia coli [11] = assay: In vitro minimal inhibitory concentration (MIC) of compound in combination with piperacillin (PIPC) showed synergic activity against Escherichia coli TEM 7; format: functional
Escherichia coli [12] = assay: In vitro minimal inhibitory concentration (MIC) of compound in combination with piperacillin (PIPC) showed synergic activity against Escherichia coli TEM 3; format: functional
Escherichia coli [13] = assay: In vitro minimal inhibitory concentration (MIC) of compound in combination with piperacillin (PIPC) showed synergic activity against Escherichia coli SHV 1; format: functional
Klebsiella aerogenes [14] = assay: In vitro minimal inhibitory concentration (MIC) of compound in combination with piperacillin (PIPC) showed synergic activity against Enterobacter aerogenes 41004; format: functional
Serratia marcescens = assay: In vitro minimal inhibitory concentration (MIC) of compound in combination with piperacillin (PIPC) showed synergic activity against Serratia marcescens 200 L; format: functional
Citrobacter freundii [15] = assay: In vitro minimal inhibitory concentration (MIC) of compound in combination with piperacillin (PIPC) showed synergic activity against Citrobacter freundii 44032; format: functional
Klebsiella aerogenes [16] = assay: In vitro minimal inhibitory concentration (MIC) of compound in combination with piperacillin (PIPC) showed synergic activity against Enterobacter aerogenes 41003; format: functional
Pseudomonas aeruginosa [17] = assay: In vitro minimal inhibitory concentration (MIC) of compound in combination with piperacillin (PIPC) showed synergic activity against Pseudomonas aeruginosa 46220 (DR-2); format: functional
Enterobacter cloacae [18] = assay: In vitro minimal inhibitory concentration (MIC) of compound in combination with piperacillin (PIPC) showed synergic activity against Enterobacter cloacae 40011; format: functional
Escherichia coli [19] = assay: In vitro minimal inhibitory concentration (MIC) of compound in combination with piperacillin (PIPC) showed synergic activity against Escherichia coli SHV 5; format: functional
Enterobacter cloacae [20] = assay: In vitro minimal inhibitory concentration (MIC) of compound in combination with piperacillin (PIPC) showed synergic activity against Enterobacter cloacae 40015; format: functional
Klebsiella aerogenes [21] = assay: In vitro minimal inhibitory concentration (MIC) of compound in combination with piperacillin (PIPC) showed synergic activity against Enterobacter aerogenes 41006; format: functional
Proteus vulgaris [22] = assay: In vitro minimal inhibitory concentration (MIC) of compound in combination with piperacillin (PIPC) showed synergic activity against Proteus vulgaris CT 106; format: functional
Staphylococcus aureus [23] = assay: In vitro minimal inhibitory concentration (MIC) of compound in combination with piperacillin (PIPC) showed synergic activity against Staphylococcus aureus 54K; format: functional
Klebsiella pneumoniae [24] = assay: In vitro minimal inhibitory concentration (MIC) of compound in combination with piperacillin (PIPC) showed synergic activity against Klebsiella pneumoniae CTX 1; format: functional
Citrobacter freundii [25] = assay: In vitro minimal inhibitory concentration (MIC) of compound in combination with piperacillin (PIPC) showed synergic activity against Citrobacter freundii 2046E; format: functional
Morganella morganii [26] = assay: In vitro minimal inhibitory concentration (MIC) of compound in combination with piperacillin (PIPC) showed synergic activity against Morganella morganii 36014; format: functional
Staphylococcus aureus [27] = assay: In vitro minimal inhibitory concentration (MIC) of compound in combination with piperacillin (PIPC) showed synergic activity against Staphylococcus aureus 80K; format: functional
Citrobacter freundii [28] = assay: In vitro minimal inhibitory concentration (MIC) of compound against Citrobacter freundii 44032; format: functional
Enterobacter cloacae [29] = assay: In vitro minimal inhibitory concentration (MIC) of compound against Enterobacter cloacae 40011; format: functional
Citrobacter freundii [30] = assay: In vitro minimal inhibitory concentration (MIC) of compound against Citrobacter freundii CT 76; format: functional
Pseudomonas aeruginosa [31] = assay: In vitro minimal inhibitory concentration (MIC) of compound against Pseudomonas aeruginosa 46220 (DR-2); format: functional
Morganella morganii [32] = assay: In vitro minimal inhibitory concentration (MIC) of compound against Morganella morganii 36030; format: functional
Enterobacter cloacae [33] = assay: In vitro minimal inhibitory concentration (MIC) of compound against Enterobacter cloacae E40002; format: functional
Enterobacter cloacae [34] = assay: In vitro minimal inhibitory concentration (MIC) of compound against Enterobacter cloacae P99; format: functional
Klebsiella aerogenes [35] = assay: In vitro minimal inhibitory concentration (MIC) of compound against Enterobacter aerogenes 41004; format: functional
Klebsiella aerogenes [36] = assay: In vitro minimal inhibitory concentration (MIC) of compound against Enterobacter aerogenes 41003; format: functional
Pseudomonas aeruginosa [37] = assay: In vitro minimal inhibitory concentration (MIC) of compound against Pseudomonas aeruginosa CT-122; format: functional
Proteus vulgaris [38] = assay: In vitro minimal inhibitory concentration (MIC) of compound against Proteus vulgaris CT 106; format: functional
Klebsiella aerogenes [39] = assay: In vitro minimal inhibitory concentration (MIC) of compound against Enterobacter aerogenes S-97; format: functional
Klebsiella pneumoniae [40] = assay: In vitro minimal inhibitory concentration (MIC) of compound against Klebsiella pneumoniae CTX 1; format: functional
Klebsiella aerogenes [41] = assay: In vitro minimal inhibitory concentration (MIC) of compound against Enterobacter aerogenes 41006; format: functional
Pseudomonas aeruginosa [42] = assay: In vitro minimal inhibitory concentration (MIC) of compound against Pseudomonas aeruginosa CT-137; format: functional
Escherichia coli [43] = assay: In vitro minimal inhibitory concentration (MIC) of compound against Escherichia coli TEM 7; format: functional
Escherichia coli [44] = assay: In vitro minimal inhibitory concentration (MIC) of compound against Escherichia coli TEM 3; format: functional
Enterobacter cloacae [45] = assay: In vitro minimal inhibitory concentration (MIC) of compound against Enterobacter cloacae S-11; format: functional
Enterobacter cloacae [46] = assay: In vitro minimal inhibitory concentration (MIC) of compound against Enterobacter cloacae S-65; format: functional
Morganella morganii [47] = assay: In vitro minimal inhibitory concentration (MIC) of compound against Morganella morganii 36014; format: functional

MIC (Pseudomonas aeruginosa [1]): 32 µg/mL
MIC (Klebsiella aerogenes [2]): 0.5 µg/mL
MIC (Morganella morganii [3]): < 0.25 µg/mL
MIC (Enterobacter cloacae [4]): < 0.25 µg/mL
MIC (Enterobacter cloacae [5]): < 0.25 µg/mL
MIC (Morganella morganii [6]): < 0.25 µg/mL
MIC (Pseudomonas aeruginosa [7]): 16 µg/mL
Compound: CC(C)(O/N=C(\C(=O)NC1C(=O)N2C(C(=O)[O-])=C(C[n+]3ccccc3)CSC12)c1csc(N)n1)C(=O)O.CO/N=C/[C@@]1(C)[C@H](C(=O)[O-])N2C(=O)CC2S1(=O)=O.[Na+] (centres undefined)

MIC (Escherichia coli [8]): 1.56 µg/mL
MIC (Enterobacter cloacae [9]): 25 µg/mL
MIC (Escherichia coli [10]): 3.13 µg/mL
MIC (Escherichia coli [11]): 0.78 µg/mL
MIC (Escherichia coli [12]): 3.13 µg/mL
MIC (Escherichia coli [13]): 1.56 µg/mL
MIC (Klebsiella aerogenes [14]): 12.5 µg/mL
MIC (Serratia marcescens): 0.78 µg/mL
MIC (Citrobacter freundii [15]): 200 µg/mL
MIC (Klebsiella aerogenes [16]): 12.5 µg/mL
MIC (Pseudomonas aeruginosa [17]): 12.5 µg/mL
MIC (Enterobacter cloacae [18]): 6.25 µg/mL
MIC (Escherichia coli [19]): ≤ 0.2 µg/mL
MIC (Enterobacter cloacae [20]): 50 µg/mL
MIC (Klebsiella aerogenes [21]): 100 µg/mL
MIC (Proteus vulgaris [22]): 1.56 µg/mL
MIC (Staphylococcus aureus [23]): 0.78 µg/mL
MIC (Klebsiella pneumoniae [24]): 6.25 µg/mL
MIC (Citrobacter freundii [25]): 0.78 µg/mL
MIC (Morganella morganii [26]): ≤ 0.2 µg/mL
MIC (Staphylococcus aureus [27]): 0.39 µg/mL
Compound: CCN1CCN(C(=O)NC(C(=O)N[C@@H]2C(=O)N3[C@@H]2SC(C)(C)[C@@H]3C(=O)O)c2ccccc2)C(=O)C1=O.C[C@]1(Cn2ccnn2)[C@H](C(=O)[O-])N2C(=O)CC2S1(=O)=O.[Na+] (some centres undefined)

Compound: CC(C)(O/N=C(\C(=O)N[C@@H]1C(=O)N2C(C(=O)[O-])=C(C[n+]3ccccc3)CS[C@H]12)c1csc(N)n1)C(=O)O [CEFTAZIDIME]
MIC (Citrobacter freundii [28]): 400 µg/mL (≈ 732 µM)
MIC (Enterobacter cloacae [29]): 25 µg/mL (≈ 45.7 µM)
MIC (Citrobacter freundii [30]): 50 µg/mL (≈ 91.5 µM)
MIC (Pseudomonas aeruginosa [31]): 25 µg/mL (≈ 45.7 µM)
MIC (Morganella morganii [32]): > 32 µg/mL
MIC (Enterobacter cloacae [33]): 200 µg/mL (≈ 366 µM)
MIC (Enterobacter cloacae [34]): 100 µg/mL (≈ 183 µM)
MIC (Klebsiella aerogenes [35]): 12.5 µg/mL (≈ 22.9 µM)
MIC (Klebsiella aerogenes [36]): 12.5 µg/mL (≈ 22.9 µM)
MIC (Pseudomonas aeruginosa [37]): 32 µg/mL (≈ 58.5 µM)
MIC (Proteus vulgaris [38]): 12.5 µg/mL (≈ 22.9 µM)
MIC (Klebsiella aerogenes [39]): 8 µg/mL (≈ 14.6 µM)
MIC (Klebsiella pneumoniae [40]): 100 µg/mL (≈ 183 µM)
MIC (Klebsiella aerogenes [41]): 200 µg/mL (≈ 366 µM)
MIC (Pseudomonas aeruginosa [42]): 16 µg/mL (≈ 29.3 µM)
MIC (Escherichia coli [43]): 12.5 µg/mL (≈ 22.9 µM)
MIC (Escherichia coli [44]): 25 µg/mL (≈ 45.7 µM)
MIC (Enterobacter cloacae [45]): 2 µg/mL (≈ 3.66 µM)
MIC (Enterobacter cloacae [46]): 2 µg/mL (≈ 3.66 µM)
MIC (Morganella morganii [47]): 25 µg/mL (≈ 45.7 µM)
MIC (Morganella morganii [47]; Morganella morganii, read-out: MIC): > 32 µg/mL
